Measured values: patent US20060188507A1, “Methods for identifying chemotherapeutic resistance in non-hematopoietic tumors” (priority 2005, published 2006)
Where two headings read alike, the source gives them in different places.

Columns and labels:
[1] = tested on: p16^INK4a protein; experiment: p16 induction after short-term adriamycin exposure (modified SITp16), MCF7 cells; assay type: cell-based, human; details: 50 nM adriamycin, 36 hour treatment (FIG. 9)
Protocol: Finally, in a modification of the SITp16, an experiment was performed to determine if p16 expression was induced following a short-term exposure of adriamycin-sensitive cells to adriamycin. For these studies, MCF7 cells were treated 3 days with the EC50 amount of adriamycin (i.e., the effective concentration median or middle of a dose response curve -for MCF7 cells and adriamycin, this is 40 nM. (Note that EC50 is the effective concentration median or middle of a dose response curve, while IC50=inhibitory concentrations by 50%. Total cell lysates (i.e., extracts) were then prepared from these adriamycin-treated cells (called MCF7 EC50 Doxo), as well as from an equal number of MCF7 cells (drug sensitive), MCF7/AR (adriamycin-resistant cells), and OVCAR3 cells (an ovarian cancer cell line from a patient who was treated with adriamycin). The lysates were resolved by SDS-PAGE, transferred to a nitrocellulose membrane, and probed with p16^INK4a specific monoclonal antibody (α-p16^INK4a (Ab-4, Neomarkers clone 16P04, JC2 commercially available from Lab Vision, Freemont, Calif.).
Studies were next performed to determine if a short duration of exposure to adriamycin would cause upregulation of p16 expression in MCF7 cells. […]

[2] = tested on: MDA-MB-231 cells; experiment: Adriamycin sensitivity of MDA-MB-231 cells; assay type: cell-based, human; details: MDA-MB-231 parental line
Protocol: The cells are allowed to attach to the plate overnight and then the media is replaced with media containing an different concentrations of ADR (0 nM, 10 nM, 20 nM, 50 nM, 100 nM, 400 nM, 500 nM, 1 μM, 5 μM, and 10 μM) and the cells are then incubated at 37° C. for 4 days. […] The colonies are the counted and the results expressed as the level of ADR resistance in nM (e.g., ≦400 nM), or EC50, in which 50% of the cells were still alive.

[3] = tested on: HeLa cells; experiment: cells; assay type: cell-based; details: Homo sapiens, HeLa, read-out: IC50 Results (MTT)
Protocol: III. MTT Cytotoxicity Assays. 24 hours post-transfection, siRNA transfected cells were seeded into 96-well plates at 3×10^3 cells/well. The cells were incubated for 16-24 hours. A range of concentrations of the indicated cytotoxic drugs was added and incubation was continued for an additional 48 hours. 20 μL of MTT (10 mg/mL) was added to each well and the plates were further incubated at 37° C. for 4 hours. The dye was solubilized with DMSO and absorbance measured at 570 nm using a multiwell plate reader (WALLAC). The results were expressed as the average of duplicate wells using the plate reader's Prism software (GraphPad).
Using the MTT cytotoxicity assay (as described in Example 3), the IC50 (i.e., the concentration at which 50% of the cells are still viable) of HeLa cells transfected with p16 siRNA for various chemotherapeutic agents was next assessed.

[4] = tested on: MCF7 cells; experiment: Adriamycin sensitivity of MCF7 cells; details: for EC50: Homo sapiens

Q: How did the “upregulation of p16 expression after short exposure” value [1] turn out when `COc1cccc2c1C(=O)c1c(O)c3c(c(O)c1C2=O)C[C@@](O)(C(=O)CO)C[C@@H]3O[C@H]1C[C@H](N)[C@H](O)[C@H](C)O1` [Doxorubicin, doxorubicin] was run?
A: did not result in these cells' upregulation of p16 expression

Q: What about the “ADR concentration to which cell line is sensitive” value [2] of the same compound?
A: approximately 200 nM

Q: And the IC50 ([3]; HeLa cells transfected with GFP siRNA)?
A: 113 nM

Q: What about the IC50 ([3]; HeLa cells transfected with P16 siRNA (p16 siRNA I)) of the same compound?
A: 70.4 nM

Q: And the EC50 ([4]; MCF7, read-out: EC50 (effective concentration median of dose response curve))?
A: 40 nM

Q: And the EC50 ([4]; MCF7, read-out: concentration known to kill 50% of MCF7 drug-sensitive cells)?
A: 50 nM

Q: What about the “ADR concentration to which cell line is sensitive” value ([4]; MCF7 parental line) of the same compound?
A: approximately 80 nM
